What was measured:
Sigma-2 receptor = target: T1, Sigma-2 receptor (Rattus norvegicus, UniProt Q5U3Y7); assay: NIMH-PDSP receptor binding, Sigma-2 (radioligand DTG, PC12)
T1 construct: endogenous in cells
T1 sequence (Q5U3Y7 1-176): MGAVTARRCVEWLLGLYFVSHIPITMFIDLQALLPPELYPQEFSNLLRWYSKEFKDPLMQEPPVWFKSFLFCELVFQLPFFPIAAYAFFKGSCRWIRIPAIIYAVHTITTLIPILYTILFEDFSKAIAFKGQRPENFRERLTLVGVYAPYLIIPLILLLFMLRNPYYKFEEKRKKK
Experimental: (§1) Compounds 5a, 5b and 5c were accepted into the National Institute of Mental Health Psychoactive Drug Screening Program, NIMH-PDSP, National Institutes of Health (NIH). Each compound was evaluated for affinity at human or rat receptors. Sites to be evaluated were chosen based on known or suspected sites of interaction with related compounds. The receptors evaluated, radio-labeled ligand, species and receptor source are depicted in Table 1. Experimental details and procedure can be found through Assay Protocol Book, National Institute of Mental Health Psychoactive Drug Screening Program, University of North Carolina at Chapel Hill.

Sigma-1 receptor = target: T2, Sigma-1 receptor (Rattus norvegicus, UniProt Q9R0C9); assay: NIMH-PDSP receptor binding, Sigma-1 (radioligand Pentazocine(+), brain)
T2 construct: from tissue; NIMH-PDSP)
T2 sequence (Q9R0C9 whole entry): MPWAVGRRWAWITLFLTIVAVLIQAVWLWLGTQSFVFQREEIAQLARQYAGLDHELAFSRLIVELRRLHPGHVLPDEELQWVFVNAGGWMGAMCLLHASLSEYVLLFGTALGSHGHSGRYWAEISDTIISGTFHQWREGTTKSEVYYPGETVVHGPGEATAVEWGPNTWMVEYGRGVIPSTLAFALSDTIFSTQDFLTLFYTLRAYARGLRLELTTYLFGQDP
Experimental: as §1

MDCK cells = assay: MTT cell viability assay in MDCK cells; type: cell-based, canine; conditions: 10-500 μM, FIG. 3A
Excerpt: (§2) We evaluated the effect of compounds 5a, 5b and 5c on cell viability in the neuronal cell line N2a and in the Madin-Darby canine kidney (MDCK) cell line, a blood-brain barrier model. Memantine, an NMDA glutamate receptor antagonist, was used as a negative control.
(§3) Mouse Neuro-2a (CCL-131, ATCC) and MDCK (CCL-34, ATCC) were routinely propagated using Eagle's Minimum Essential Medium (EMEM, ATCC), supplemented with 10% fetal bovine serum (FBS, ATCC) and 1% penicillin/streptomycin (Gibco) in 100 cm^2 Petri-dishes (Corning) at 37° C. in 5% CO2. Compounds 5a, 5b and 5c were obtained as salts. Stock solutions (1 mM) were prepared in double distilled water. The treatment concentrations for the compounds and the memantine control were 10, 50, 100, 200, 300, and 500 μM. Cells were allowed to attach overnight prior to treatment. H2O2 served as positive control. Working concentrations were prepared immediately prior to treatment by dilution into medium.
(§4) Cell viability was assayed using the MTT (3-(4,5-dimethylthiazole-2-yl)-2,5-diphenyltetrazoliumbromide) assay (ATCC) according to manufacturer's instructions. Cells were plated at a concentration of 13,000 to 20,000 cells/well on a 96-well round-bottom plate. MTT assay. The following determinants were optimized for each cell line: plating cell concentration; incubation time with MTT reagent, and incubation time with detergent reagent. Absorbance was recorded at 570 nm by a microtiter plate reader (VICTOR^3, PerkinElmer). This experiment was repeated on three separate occasions and results were presented as the mean absorbance±SD.

N2a cells = assay: MTT cell viability assay in N2a cells; type: cell-based, Mouse; conditions: 10-500 μM, FIG. 4A
Excerpt: as §2, §3, §4

MCF-7 cells = assay: MTT cell viability assay in MCF-7 breast carcinoma cells; type: cell-based, human; conditions: 24 hours; for effect on cell viability in MCF-7 cells: MTT assay, 10 μM to 500 μM, FIG. 6; for percent survival of untreated control cells: MTT
Experimental: (§5) We also evaluated the effect of compounds 5a, 5b and 5c on the human glioma cell line U-138 and the human breast carcinoma cell line MCF-7. Doxorubicin, a clinically used anticancer compound, served as a positive control.
(§6) Cell viability was assayed using the MTT assay essentially as described in Example 8. Adherent cells were trypsinized and placed into 96-well flat bottom tissue culture plates in 100 μl of supplemented Dulbecco's Modified Eagles Media (DMEM) at 10,000 cells/well for 24 hours. Cells were treated with the compounds for 24 hours at concentrations ranging from 10 μM to 500 μM. Cells were incubated with MTT reagent for 4 hours followed with MTT detergent for 24 hours. Plates were read on a computerized microplate ELISA reader at an optical density of 570 nm. The percent cytotoxicity was determined by the ratio of treated optical densities to control optical densities (OD) from one and multiplying by 100. The concentration giving 50% cytotoxicity, IC50, was determined from the dose response curves for each cell line using the GraphPad Prism software package. Each experiment was performed three separate times and the data presented are the pooled results of the three experiments.

U-138 glioma cells = assay: MTT cell viability assay in U-138 glioma cells; type: cell-based, human; conditions: 24 hours, 10 μM to 500 μM, FIG. 5
Experimental: as §5, §6

MES-induced seizures = assay: Maximal Electroshock Test (MES), tonic-clonic seizure model; type: in vivo; conditions: mice
Experimental: Compounds 5a, 5b and 5c were evaluated in for the ability to modulate seizures using the Maximal Electroshock Test (MES), a model for generalized tonic-clonic seizures that can provide an indication of a compound's ability to prevent seizure spread when all neuronal circuits in the brain are maximally active. For all tests based on MES convulsions, 60 Hz of alternating current (50 mA in mice) was delivered for […] by corneal electrodes which had been primed with an electrolyte solution containing an anesthetic agent (0.5% tetracaine HCL). Mice were tested at various intervals following doses of 30, 100 and 300 mg/kg of test compound given by i.p. injection of a volume of 0.01 mUg. An animal was considered “protected” from MES-induced seizures upon abolition of the hindlimb tonic extensor component of the seizure. Compound 5c was active at 100 and 300 mg/kg.

c1ccc(C2(NCCCN3CCCCC3)CC3CCC2C3)cc1 (racemic) [Compound 5a, (±)-2-Phenyl-N-(3-(piperidin-1-yl)propyl)bicyclo[2.2.1]heptan-2-amine]
Ki (Sigma-2 receptor): 9.6 nM | Ki (Sigma-1 receptor): > 10000 nM | effect on cell viability in MDCK cells (MDCK cells): minimal effects on cell viability | effect on cell viability in N2a cells (N2a cells): dose-dependent reduction in cell viability | effect on cell viability in MCF-7 cells (MCF-7 cells): dose-dependent reduction in cell viability

Fc1ccc(C2(NCCCN3CCCCC3)CC3CCC2C3)cc1 (racemic) [Compound 5b, (±)-2-(4-Fluorophenyl)-N-(3-(piperidin-1-yl)propyl)bicyclo[2.2.1]heptan-2-amine]
Ki (Sigma-2 receptor): 16 nM | Ki (Sigma-1 receptor): > 10000 nM | effect on cell viability in MDCK cells (MDCK cells): minimal effects on cell viability | effect on cell viability in N2a cells (N2a cells): dose-dependent reduction in cell viability | effect on cell viability in U-138 glioma cells (U-138 glioma cells): dose-dependent effect on cell viability | percent survival of untreated control cells (MCF-7 cells; 200 μM): 70% | percent survival of untreated control cells (MCF-7 cells; 300 μM): 63% | percent survival of untreated control cells (MCF-7 cells; 500 μM): 16% | effect on cell viability in MCF-7 cells (MCF-7 cells): dose-dependent reduction in cell viability

Fc1ccc(C2(NCCCOC3CCCCO3)CC3CCC2C3)cc1 (racemic) [Compound 5c, 2-(4-Fluorophenyl)-N-(3-(tetrahydro-2H-pyran-2-yloxy)propyl)bicyclo[2.2.1]heptan-2-amine]
Ki (Sigma-2 receptor): 5.5 nM | Ki (Sigma-1 receptor): > 10000 nM | effect on cell viability in MDCK cells (MDCK cells): minimal effects on cell viability | effect on cell viability in N2a cells (N2a cells): dose-dependent reduction in cell viability | effect on cell viability in MCF-7 cells (MCF-7 cells): dose-dependent reduction in cell viability | activity in MES test (protection from MES-induced seizures) (MES-induced seizures; 100 mg/kg i.p.): active | activity in MES test (protection from MES-induced seizures) (MES-induced seizures; 300 mg/kg i.p.): active

Reference: patent US8735590B2, “Bicyclo-heptan-2-amines” (priority 2011, dated 2014)
